Source: patent US8729048B2, “Methods and materials for assessing responsiveness to PARP inhibitors and platinating agents” (Mayo Foundation for Medical Education and Research, priority 2011, dated 2014)

Tests used:
Type in all cases: cell-based
[1] = system: PEO1 cells; test: Cytogenetics, metaphase spreads, PEO1
Protocol: FIG. 4. PARP inhibitor-induced chromosomal derangement and genomic instability is dependent on DNA-PK activity. (A) Representative images of metaphase spreads from cells treated with diluent (0.2% DMSO), 500 nM DNA-PKi, 2.5 μM ABT-888, or both ABT-888 and DNA-PKi for 72 hours. Chromosomal breaks are marked with arrowheads and radial structures are marked with asterisks. (B) Quantitation of data from (A) showing average radial chromosomes per cell (n=100 for each data point pooled from two separate experiments, error bars represent SEM). † indicate values that are zero. (C) Calculated mutagenesis frequency in BRCA2-mutant CAPAN1 cells after control treatment or exposure to ABT-888 with or without 250 nM DNA-PKi. Each bar represents the mean±SEM of 5-8 plates.
Cell harvest and metaphase slide preparation were performed for metaphase analysis as described elsewhere (Fletcher, Curr. Protoc. Hum. Genet., 2:Unit 10.13. (1994)). Fifty non-banded metaphases from each cell line were analyzed and scored for radial formations as well as major and minor breakage according to the International System of Human Cytogenetic Nomenclature. Images of cells with breakage were captured using a CytoVision Imaging System (Genetix; New Milton, UK).

[2] = system: phospho-H2AX and phospho-DNA-PKcs foci in PEO1 cells; test: Immunofluorescence / confocal foci in PEO1 cells
Protocol: FIG. 2. DNA-PK is activated following PARP inhibitor exposure in PEO1 cells. (A) Western blots for poly(ADP-ribose) polymer (pADPr) and phosphorylation of DNA-PK substrates (DNA-PKcs autophosphorylation at Thr^2609 and Histone H2AX at Ser^139) in PEO1 cells following 72 hours exposure to increasing concentrations of ABT-888 (0, 0.625, 1.25, 2.5, 5, 10, 20, and 40 μM). Hsp90, total DNA-PKcs, and Histone H1 are used as loading controls. (B) Phosphorylation of DNA-PK substrates after treatment for 72 hours with diluent (0.2% DMSO, lanes 1 and 4), 500 nM DNA-PK inhibitor AZ12594248 (DNA-PKi, lanes 2 and 5), or 5 μM ATM inhibitor KU55933 (ATMi, lanes 3 and 6) alone (lanes 1-3) or in combination with 20 μM ABT-888 (lanes 4-6). (C) Quantitation of cells positive for phospho-H2AX foci in PEO1 and PEO4 cells, following treatment with DMSO, 500 nM DNA-PKi, 20 μM ABT-888 (ABT), ABT-888 and DNA-PKi, 50 μM Etoposide (Etop), or 5 Gy ionizing radiation (IR). Cells were exposed to ABT-888 and/or DNA-PKi for 72 hours, etoposide for 1 hour, or allowed to recover for 1 hour after IR. Results are reported as mean±SEM of 3 independent experiments. (D) Confocal images of PEO1 cells treated as in […]. Phospho-Ser^139-H2AX is shown in green, phospho-Thr^2609-DNA-PKcs in red, and Hoechst 33258 in blue.
FIG. 8. PARP inhibition induces phosphorylation of DNA-PKcs selectively in PEO1 cells. (A) Quantitation of PEO1 cells positive for phospho-Ser^2056 DNA-PKcs foci following 72 hours exposure to increasing concentrations of ABT-888. (B) Quantitation of PEO1 cells positive for phospho-Ser^2056 DNA-PKcs foci following 72 hours exposure to diluent (0.2% DMSO), 500 nM DNA-PKi, 5 μM ATMi alone (columns 1-3) or with 20 μM ABT-888 (columns 4-6). (C) Representative confocal images of PEO1 cells from (B). Phospho-H2AX is shown in green, phospho-Thr^2609 DNA-PKcs in red, and Hoechst 33258 in blue. Results in (A) and (B) are presented as means±SEM of 3 independent experiments.
FIG. 9. siRNA-mediated knockdown of NHEJ components reduces ABT-888 induced formation of phospho-H2AX foci. PEO1 cells, following siRNA-mediated knockdown of Ku80 (A) or Artemis (B), were exposed to either diluent (0.1% DMSO) or 20 μM ABT-888 for 72 hours, fixed, and stained for phospho-H2AX foci. Positive nuclei were defined as having >10 foci. Results are presented as means±SEM of 3 independent experiments. […]
(§1) Coverslips were then washed three times with PBS and incubated for 1 h with Alexa Fluor 488- and/or 568-conjugated secondary antibody (Invitrogen) diluted 1:1000. […] Phospho-H2AX positive cells (defined as having >10 foci/cell) were counted on a Zeiss Axioplan microscope. […] Quantitation and image processing were performed using the Zeiss Zen software package and Adobe Photoshop CS3.

[3] = system: phospho-H2AX and phospho-DNA-PKcs foci in HCC1937 cells; test: Immunofluorescence / confocal foci in HCC1937 cells
Protocol: FIG. 15. Upon PARP inhibition, HCC1937 cells form phospho-H2AX foci that colocalize to regions of activated DNA-PK. (A) Quantitation of cells positive for phospho-H2AX foci in HCC1937 and HCC1937/BRCA1 cells, following treatment with 0.2% DMSO, 250 nM DNA-PKi, 20 μM ABT-888 (ABT), ABT-888 and DNA-PKi, 50 μM etoposide (Etop), or 5 Gy ionizing radiation (IR). Cells were exposed to ABT-888 and/or DNA-PKi for 72 hours, etoposide for 1 hour, or allowed to recover 1 hour post-IR. Results are reported as mean±SEM of 3 independent experiments. (B) Confocal microscopy after staining with antibodies to phospho-H2AX (Ser^139) and phospho-DNA PKcs (Thr^2609) as in FIG. 2D. HCC1937 cells are shown on the left, and reconstituted HCC1937/BRCA1 cells on the right.
Immunofluorescence studies were performed as described elsewhere (Segovis et al., J. Immunol., 182:6933-6942 (2009)) with several modifications. […]
as §1

C[C@]1(c2nc3c(C(N)=O)cccc3[nH]2)CCCN1 [ABT-888]
chromosome breaks and aberrant radial structures ([1]; 2.5 μM ABT-888, 72 hours): induced the formation of chromosome breaks and aberrant radial structures | phospho-H2AX foci ([2]; 20 μM ABT-888, 72 hours): induced phospho-H2AX foci | DNA-PKcs autophosphorylation at Ser2056 ([2]; 72 hours): increased | ABT-888 induced phospho-H2AX foci after downregulation of Ku80 or Artemis ([2]; siRNA knockdown, 20 μM ABT-888, 72 hours): reduced ABT-888 induced phospho-H2AX foci

CCN1CCN(CC(=O)Nc2ccc(-c3cccc4c(=O)cc(N5CCOCC5)oc34)c3sc4ccccc4c23)CC1 [AZ 12594248]
effect on ABT-888-induced chromosome breaks and radial structures ([1]; 500 nM DNA-PKi with 2.5 μM ABT-888, 72 hours): substantially diminished this effect | effect on ABT-888 induced colocalization of phospho-Thr2609-DNA-PK and phospho-Ser139-H2AX in foci [3]: inhibited ABT-888 induced colocalization | effect on formation of H2AX foci ([3]; 250 nM DNA-PKi with 20 μM ABT-888, 72 hours): diminished formation of H2AX foci | effect on ABT-888-induced formation of foci and phosphorylation of DNA-PKcs ([2]; 500 nM DNA-PKi with 20 μM ABT-888, 72 hours): reduced
